# From ChEMBL document CHEMBL1136539, “N-ferrocenylmethyl, N'-methyl-2-substituted benzimidazolium iodide salts with in vitro activity against the Leishmania infantum parasite strain L1” (Bioorg Med Chem Lett, 2003)
# System: Leishmania infantum
# Assay: Inhibitory activity against Leishmania infantum parasite L1 strain
# Type: functional, organism-based
compound,measurement,value
C[C@@H]1[C@H](O)[C@@H](C)/C=C/C=C/C=C/C=C/C=C/C=C/C=C/[C@H](O[C@@H]2O[C@H](C)[C@@H](O)[C@H](N)[C@@H]2O)C[C@@H]2O[C@](O)(C[C@@H](O)C[C@@H](O)[C@H](O)CC[C@@H](O)C[C@@H](O)CC(=O)O[C@H]1C)C[C@H](O)[C@H]2C(=O)O [AMPHOTERICIN B],IC50,< 6.25 µM
